The subject of one assay is KM12 cells. The assay can be described thus: Cell viability assay (CellTiter-Glo) in KM12 cells. The format is cell-based. Particulars: Homo sapiens, 72 h; Table 2; KM12 cell viability, CellTiter-Glo, 3 days; read-out: IC50.
Turning to `O=C1CCC(N2C(=O)c3cccc(NCCOCCOCCOCCOCCOCCC(=O)N4CCN(c5ccc(C(=O)Nc6n[nH]c7ccc(Cc8cc(F)cc(F)c8)cc67)c(NC6CCOCC6)c5)CC4)c3C2=O)C(=O)N1` (centres unmarked) [CPD-054, N-(5-(3,5-difluorobenzyl)-1H-indazol-3-yl)-4-(4-(1-((2-(2,6-dioxopiperidin-3-yl)-1,3-dioxoisoindolin-4-yl)amino)-3,6,9,12,15-pentaoxaoctadecan-18-oyl)piperazin-1-yl)-2-((tetrahydro-2H-pyran-4-yl)amino)benzamide], the half-inhibitory concentration (IC50) came out at 0.013 µM.
In the case of `Cc1ncsc1-c1ccc(CNC(=O)[C@@H]2C[C@@H](O)CN2C(=O)[C@@H](NC(=O)CCOCCC(=O)N2CCN(c3cccc(-c4cnc5ccc(N6CCC[C@@H]6c6cccc(F)c6)nn45)n3)CC2)C(C)(C)C)cc1` [CPD-007, (2S,4R)-1-((S)-2-(3-(3-(4-(6-(6-((R)-2-(3-Fluorophenyl)pyrrolidin-1-yl)imidazo[1,2-b]pyridazin-3-yl)pyridin-2-yl)piperazin-1-yl)-3-oxopropoxy)propanamido)-3,3-dimethylbutanoyl)-4-hydroxy-N-(4-(4-methylthiazol-5-yl)benzyl)pyrrolidine-2-carboxamide], the IC50 was greater than 1 µM.
Turning to `O=C1CCC(N2C(=O)c3cccc(NCCOCCOCCC(=O)N4CCN(c5ccc(C(=O)Nc6n[nH]c7ccc(Cc8cc(F)cc(F)c8)cc67)c(NC6CCOCC6)c5)CC4)c3C2=O)C(=O)N1` (centres unmarked) [CPD-032, N-(5-(3,5-Difluorobenzyl)-1H-indazol-3-yl)-4-(4-(3-(2-(2-((2-(2,6-dioxopiperidin-3-yl)-1,3-dioxoisoindolin-4-yl)amino)ethoxy)ethoxy)propanoyl)piperazin-1-yl)-2-((tetrahydro-2H-pyran-4-yl)amino)benzamide], the IC50 was 0.0054 µM.
For `Cc1ncsc1-c1ccc(CNC(=O)[C@@H]2C[C@@H](O)CN2C(=O)[C@@H](NC(=O)CCOCCOCCOCCC(=O)N2CCN(c3cccc(-c4cnc5ccc(N6CCC[C@@H]6c6cccc(F)c6)nn45)n3)CC2)C(C)(C)C)cc1` [CPD-016, (2S,4R)-1-((S)-2-(tert-butyl)-16-(4-(6-(6-((R)-2-(3-Fluorophenyl)pyrrolidin-1-yl)imidazo[1,2-b]pyridazin-3-yl)pyridin-2-yl)piperazin-1-yl)-4,16-dioxo-7,10,13-trioxa-3-azahexadecanoyl)-4-hydroxy-N-(4-(4-methylthiazol-5-yl)benzyl)pyrrolidine-2-carboxamide], the IC50 was determined as 0.15 µM.
Same read-out and setting: the result for `Cc1ncsc1-c1ccc(CNC(=O)[C@@H]2C[C@@H](O)CN2C(=O)[C@@H](NC(=O)CCOCCOCCOCCOCCC(=O)N2CCN(c3cccc(-c4cnc5ccc(N6CCC[C@@H]6c6cccc(F)c6)nn45)n3)CC2)C(C)(C)C)cc1` [CPD-019, (2S,4R)-1-((S)-2-(tert-butyl)-19-(4-(6-(6-((R)-2-(3-Fluorophenyl)pyrrolidin-1-yl)imidazo[1,2-b]pyridazin-3-yl)pyridin-2-yl)piperazin-1-yl)-4,19-dioxo-7,10,13,16-tetraoxa-3-azanonadecanoyl)-4-hydroxy-N-(4-(4-methylthiazol-5-yl)benzyl)pyrrolidine-2-carboxamide] reads 0.5 µM.

The assay is the same for the next values; noted with them: Homo sapiens, 72 h; Table 3; KM12 cell viability, CellTiter-Glo, 3 days; read-out: IC50.
Take `O=C1CCC(N2C(=O)c3ccc(NCC4CN(c5cccc(-c6cnc7ccc(N8CCC[C@@H]8c8cccc(F)c8)nn67)n5)C4)cc3C2=O)C(=O)N1` (stereo partly drawn) [TR-179, 2-(2,6-Dioxopiperidin-3-yl)-5-(((1-(6-(6-((R)-2-(3-fluorophenyl)pyrrolidin-1-yl)imidazo[1,2-b]pyridazin-3-yl)pyridin-2-yl)azetidin-3-yl)methyl)amino)isoindoline-1,3-dione]: the concentration for half-maximal inhibition (IC50) worked out at 0.0234 µM.
`O=C1CCC(N2C(=O)c3ccc(NCCCCCC(=O)N4CCN(c5cccc(-c6cnc7ccc(N8CCC[C@@H]8c8cccc(F)c8)nn67)n5)CC4)cc3C2=O)C(=O)N1` (stereo partly drawn) [TR-122, 2-(2,6-Dioxopiperidin-3-yl)-5-((6-(4-(6-(6-((R)-2-(3-fluorophenyl)pyrrolidin-1-yl)imidazo[1,2-b]pyridazin-3-yl)pyridin-2-yl)piperazin-1-yl)-6-oxohexyl)amino)isoindoline-1,3-dione]: the IC50 is 0.0027 µM.
`O=C(CN1CCN(c2cccc(-c3cnc4ccc(N5CCC[C@@H]5c5cccc(F)c5)nn34)n2)CC1)NCCOCCOCCOCCNc1ccc2c(c1)C(=O)N(C1CCC(=O)NC1=O)C2=O` (stereo partly drawn) [TR-129, N-(2-(2-(2-(2-((2-(2,6-dioxopiperidin-3-yl)-1,3-dioxoisoindolin-5-yl)amino)ethoxy)ethoxy)ethoxy)ethyl)-2-(4-(6-(6-((R)-2-(3-fluorophenyl)pyrrolidin-1-yl)imidazo[1,2-b]pyridazin-3-yl)pyridin-2-yl)piperazin-1-yl)acetamide]: the IC50 was 0.0044 µM.
As for `O=C1CCC(N2Cc3cc(OCCN4CCN(c5cccc(-c6cnc7ccc(N8CCC[C@@H]8c8cccc(F)c8)nn67)n5)CC4)ccc3C2=O)C(=O)N1` (stereo partly drawn) [TR-200, 3-(5-(2-(4-(6-(6-((R)-2-(3-fluorophenyl)pyrrolidin-1-yl)imidazo[1,2-b]pyridazin-3-yl)pyridin-2-yl)piperazin-1-yl)ethoxy)-1-oxoisoindolin-2-yl)piperidine-2,6-dione], the IC50 came to 0.101 µM.
For the molecule `O=C1CCC(N2C(=O)c3ccc(NCCC(=O)N4CCN(c5cccc(-c6cnc7ccc(N8CCC[C@@H]8c8cccc(F)c8)nn67)n5)CC4)cc3C2=O)C(=O)N1` (stereo partly drawn) [TR-121, 2-(2,6-Dioxopiperidin-3-yl)-5-((3-(4-(6-(6-((R)-2-(3-fluorophenyl)pyrrolidin-1-yl)imidazo[1,2-b]pyridazin-3-yl)pyridin-2-yl)piperazin-1-yl)-3-oxopropyl)amino)isoindoline-1,3-dione], the IC50 worked out at 0.0021 µM.

The assay is the same for the next values; noted with them: Homo sapiens, 72 h; Table 4; KM12 cell viability, CellTiter-Glo, 3 days; read-out: IC50.
Regarding `O=C1CCC(N2C(=O)c3ccc(NC(=O)C4CN(c5cccc(-c6cnc7ccc(N8CCC[C@@H]8c8cccc(F)c8)nn67)n5)C4)cc3C2=O)C(=O)N1` (stereo partly drawn) [TR-209, N-(2-(2,6-Dioxopiperidin-3-yl)-1,3-dioxoisoindolin-5-yl)-1-(6-(6-((R)-2-(3-fluorophenyl)pyrrolidin-1-yl)imidazo[1,2-b]pyridazin-3-yl)pyridin-2-yl)azetidine-3-carboxamide], the half-maximal inhibitory concentration (IC50) is greater than 0.5 µM.
In the case of `Cn1c(=O)n(C2CCC(=O)NC2=O)c2cccc(NCCN3CCN(c4cccc(-c5cnc6ccc(N7CCC[C@@H]7c7cccc(F)c7)nn56)n4)CC3)c21` (stereo partly drawn) [TR-216, 3-[4-[2-[4-[6-[6-[(2R)-2-(3-Fluorophenyl)pyrrolidin-1-yl]imidazo[1,2-b]pyridazin-3-yl]-2-pyridyl]piperazin-1-yl]ethylamino]-3-methyl-2-oxo-benzimidazol-1-yl]piperidine-2,6-dione], the 50% inhibitory concentration (IC50) was 0.0036 µM.
Same read-out and setting: the result for `O=C1CCC(N2Cc3cc(NC4CN(c5cccc(-c6cnc7ccc(N8CCC[C@@H]8c8cccc(F)c8)nn67)n5)C4)ccc3C2=O)C(=O)N1` (stereo partly drawn) [TR-206, 3-(5-((1-(6-(6-((R)-2-(3-Fluorophenyl)pyrrolidin-1-yl)imidazo[1,2-b]pyridazin-3-yl)pyridin-2-yl)azetidin-3-yl)amino)-1-oxoisoindolin-2-yl)piperidine-2,6-dione] reads 0.0158 µM.

Still in this assay, the particulars now being: Homo sapiens, KM12, 72 h.
Molecule `Cn1c(=O)n(C2CCC(=O)NC2=O)c2cccc(C#CCN3CCN(c4cccc(-c5cnc6ccc(N7CCC[C@@H]7c7cccc(F)c7)nn56)n4)CC3)c21` (stereo partly drawn) [TR-238, 3-(4-(3-(4-(6-(6-((R)-2-(3-fluorophenyl)pyrrolidin-1-yl)imidazo[1,2-b]pyridazin-3-yl)pyridin-2-yl)piperazin-1-yl)prop-1-yn-1-yl)-3-methyl-2-oxo-2,3-dihydro-1H-benzo[d]imidazol-1-yl)piperidine-2,6-dione] gave an IC50 of 0.016 µM.

As usually defined, the IC50 is the point on the concentration scale where inhibition reaches its midpoint.

For the origin of these results see US12065442B2, “Tropomyosin receptor kinase (TRK) degradation compounds and methods of use” (Cullgen (Shanghai), Inc., priority 2018, dated 2024).
